From patent US8853230B2, “Inhibitors of JAK” (Portola Pharmaceuticals, Inc., priority 2009, dated 2014)

Tests used:
Format in all cases: biochemical
JAK1 = target: T1, JAK1 (Homo sapiens, UniProt P23458); test: Z'-LYTE kinase assay, JAK1 tyrosine phosphorylation activity; settings: read-out: JAK 1 IC50
T1 construct: 5 μl of catalytic domain recombinant Kinase enzyme+Tyr peptide substrate (Invitrogen, Calif.); purchased Invitrogen
Method in brief: (§1)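 Recombinant catalytic-domain kinase was incubated with coumarin/fluorescein-labelled Tyr6 peptide, ATP and compound (1% DMSO final) for 1 h at room temperature. Protease development then ran 1 h at room temperature. Emission ratio at 445/520 nm (excitation 400 nm) gave percent phosphorylation; IC50s came from 4-parameter logistic fits.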

JAK3 = target: T2, JAK3 (Homo sapiens, UniProt P52333); test: Z'-LYTE kinase assay, JAK3 tyrosine phosphorylation activity
T2 construct: 5 μl of catalytic domain recombinant Kinase enzyme+Tyr peptide substrate (Invitrogen, Calif.); purchased Invitrogen
T2 sequence (P52333 822-1111 limits assumed): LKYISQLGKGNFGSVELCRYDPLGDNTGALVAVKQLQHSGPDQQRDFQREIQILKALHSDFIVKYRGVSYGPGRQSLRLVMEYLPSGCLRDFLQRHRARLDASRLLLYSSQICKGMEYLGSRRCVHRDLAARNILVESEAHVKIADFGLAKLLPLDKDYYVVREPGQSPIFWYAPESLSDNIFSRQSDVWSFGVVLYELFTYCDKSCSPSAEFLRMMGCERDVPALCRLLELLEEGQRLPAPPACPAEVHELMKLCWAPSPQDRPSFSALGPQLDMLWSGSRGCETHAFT
Method in brief: as §1

JAK2 = target: T3, JAK2 (Homo sapiens, UniProt O60674); test: Z'-LYTE kinase assay, JAK2 tyrosine phosphorylation activity
T3 construct: 5 μl of catalytic domain recombinant Kinase enzyme+Tyr peptide substrate (Invitrogen, Calif.); purchased Invitrogen
T3 sequence (O60674 849-1124 limits assumed): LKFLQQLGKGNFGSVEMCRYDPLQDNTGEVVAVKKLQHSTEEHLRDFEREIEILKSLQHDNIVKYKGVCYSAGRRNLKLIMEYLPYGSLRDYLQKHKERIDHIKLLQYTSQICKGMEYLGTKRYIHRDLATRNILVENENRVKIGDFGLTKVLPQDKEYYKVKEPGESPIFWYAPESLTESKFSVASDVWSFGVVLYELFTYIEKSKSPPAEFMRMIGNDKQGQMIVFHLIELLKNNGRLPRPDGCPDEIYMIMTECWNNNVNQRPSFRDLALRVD
Method in brief: as §1

TYK2 = target: T4, TYK2 (Homo sapiens, UniProt P29597); test: Z'-LYTE kinase assay, TYK2 tyrosine phosphorylation activity
T4 construct: 5 μl of catalytic domain recombinant Kinase enzyme+Tyr peptide substrate (Invitrogen, Calif.); purchased Invitrogen
T4 sequence (P29597 897-1176 limits assumed): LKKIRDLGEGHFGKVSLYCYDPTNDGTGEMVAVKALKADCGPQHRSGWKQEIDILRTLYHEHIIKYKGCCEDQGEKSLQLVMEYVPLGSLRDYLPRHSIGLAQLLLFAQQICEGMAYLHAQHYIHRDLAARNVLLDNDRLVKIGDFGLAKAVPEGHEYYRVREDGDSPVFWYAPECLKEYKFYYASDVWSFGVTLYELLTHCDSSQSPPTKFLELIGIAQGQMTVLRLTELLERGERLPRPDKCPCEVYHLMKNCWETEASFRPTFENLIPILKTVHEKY
Method in brief: as §1

T1 sequence (P23458 875-1153 limits assumed): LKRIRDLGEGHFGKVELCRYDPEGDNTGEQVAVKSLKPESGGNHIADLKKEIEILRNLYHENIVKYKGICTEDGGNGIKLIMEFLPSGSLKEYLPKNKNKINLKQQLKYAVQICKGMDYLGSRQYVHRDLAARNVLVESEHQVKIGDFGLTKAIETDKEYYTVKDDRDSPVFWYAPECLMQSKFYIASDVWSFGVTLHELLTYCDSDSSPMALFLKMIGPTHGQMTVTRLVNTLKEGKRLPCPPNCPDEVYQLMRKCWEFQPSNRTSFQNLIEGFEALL

IC50 (JAK1) [nM]	IC50 (JAK3) [nM]	IC50 (JAK2) [nM]	IC50 (TYK2) [nM]	Compound
1 to 10	< 1	1 to 10	1 to 10	CC[C@@H](C)Nc1nc(Nc2cccc(NC(C)=O)c2)ncc1C(N)=O [Example 238, (R)-2-(3-acetamidophenylamino)-4-(sec-butylamino)pyrimidine-5-carboxamide]
10 to 100	1 to 10	1 to 10	1 to 10	CC(=O)Nc1cc(Nc2ncc(C(N)=O)c(Nc3cccc4nsnc34)n2)ccc1OCCCN1CCCCC1 [Example 243]
100 to 1000	1 to 10	10 to 100	10 to 100	CC(=O)Nc1cc(Nc2ncc(C(N)=O)c(NCc3cccc(F)c3)n2)ccc1OCCN(C)C [Example 228, 2-(3-acetamido-4-(2-(dimethylamino)ethoxy)phenylamino)-4-(3-fluorobenzylamino)pyrimidine-5-carboxamide]
10 to 100	10 to 100	10 to 100	10 to 100	CNC(=O)Nc1cc(Nc2ncc(C(N)=O)c(NC3CCCC3)n2)ccc1Cl [Example 166, 2-(4-chloro-3-(3-methylureido)phenylamino)-4-(cyclopentylamino)pyrimidine-5-carboxamide]
100 to 1000	10 to 100	100 to 1000	100 to 1000	CC(=O)Nc1cccc(Nc2cc(N[C@H](C)c3ccccc3)c(C(N)=O)cn2)c1 [Example 322, (R)-6-(3-acetamidophenylamino)-4-(1-phenylethylamino)nicotinamide]
> 1000	100 to 1000	> 1000	100 to 1000	CNC(=O)c1cnc(Nc2cccc(NC(=O)COC)c2)nc1NCc1ccccc1 [Example 113, 4-(benzylamino)-2-(3-(2-methoxyacetamido)phenylamino)-N-methylpyrimidine-5-carboxamide]
> 1000	100 to 1000	100 to 1000	> 1000	CC(=O)Nc1cccc(Nc2cc(NCc3ccc(F)cc3)c(C(N)=O)cn2)c1 [Example 332, 6-(3-acetamidophenylamino)-4-(4-fluorobenzylamino)nicotinamide]
10 to 100	1 to 10	10 to 100	1 to 10	CC(=O)Nc1cccc(Nc2ncc(C(N)=O)c(N[C@@H]3CCc4ccccc43)n2)c1 [Example 97, (R)-2-(3-acetamidophenylamino)-4-(2,3-dihydro-1H-inden-1-ylamino)pyrimidine-5-carboxamide]
100 to 1000	10 to 100	100 to 1000	100 to 1000	CC(=O)Nc1cccc(Nc2ncc(C(N)=O)c(N[C@@H](CO)c3ccccc3)n2)c1 [Example 98, (R)-2-(3-acetamidophenylamino)-4-(2-hydroxy-1-phenylethylamino)pyrimidine-5-carboxamide]
1 to 10	< 1	1 to 10	< 1	CC(=O)Nc1cccc(Nc2ncc(C(N)=O)c(N[C@H](C)C(C)C)n2)c1 [Example 252, (R)-2-(3-acetamidophenylamino)-4-(3-methylbutan-2-ylamino)pyrimidine-5-carboxamide]
100 to 1000	10 to 100	100 to 1000	10 to 100	CC(=O)Nc1cccc(Nc2cc(NCC3CCC3)c(C(N)=O)cn2)c1 [Example 331, 6-(3-acetamidophenylamino)-4-(cyclobutylmethylamino)nicotinamide]
10 to 100	1 to 10	10 to 100	1 to 10	NC(=O)c1cnc(Nc2cccc(NC(=O)N3CCCC3)c2)nc1NCC1CC1 [Example 123, 4-(cyclopropylmethylamino)-2-(3-(pyrrolidine-1-carboxamido)phenylamino)pyrimidine-5-carboxamide]
10 to 100	10 to 100	10 to 100	10 to 100	NC(=O)c1cnc(Nc2cccc(NC(=O)N3CCCC3)c2)nc1NCC(F)(F)F [Example 136, 2-(3-(pyrrolidine-1-carboxamido)phenylamino)-4-(2,2,2-trifluoroethylamino)pyrimidine-5-carboxamide]
